# In patent US4863899A, “Biologically active polypeptides” (priority 1987, dated 1989):
# Like-named read-outs stand apart in the source and are kept apart here. Positions of bridges follow the written chain, without caps; N, C: chain ends. Residues, ends and D or L forms follow the SMILES beside them. No end group written: not given here.
# How the values were obtained:
# [1] = system: antiserum against peptide III; assay: Radioimmunoassay, inhibition of precipitation of 125I-peptide III; type: binding, rabbit; conditions: for inhibition of precipitation of 125I-peptide III, in words: compared with peptide III; for Relative Inhibitory Activity: half-maximal inhibitory concentration relative to peptide III, standard RIA, > = highest concentration tested
# Protocol: Rabbits were immunized by subcutaneous injection of 1 mg of conjugate injected subcutaneously at four separate sites. Two booster injections were administered at bi-weekly intervals following the initial injection. The serum used in this study was collected eighty days after the initial injection. An immunoglobulin fraction of this serum was prepared by ammonium sulfate precipitation. The product of antibodies specific for immunizing peptide was monitored with a solid phase enzyme-linked immunoabsorbent assay.
# Reactants were mixed in a final volume of 50 microliters of a solution containing: 20 mM sodium phosphate, at pH 7.4; 200 mM NaCl: 40 mM dithiothreitol; 0.1% (w:v) BSA; 0.1% (w:v) NaN3 : ^125 I-peptide III; (10^4 cpm); antiserum at a final dilution of 1/15,000; and other additions, as specified. The reaction was initiated by the addition of antiserum and continued at 23° C. for 90 minutes. An equal volume of 10% formalin-fixed Staphalococcus A (Pansorbin, Calbiochem) was then added and incubation was continued for an additional 30 minutes at 23° C. The immunoadsorbant was removed by sedimentation through a cushion of 10% (w:v) sucrose and the amount of bound ^125 I-peptide III was determined using a gamma counter. Under these conditions, approximately 25% of ^125 I-peptide was bound by antibody in the absence of competitor. The amount of bound peptide III was corrected for non-specific binding measured in the absence of antibody (less than 5% of the total) and expressed as a percentage of maximal binding. Concentrations of competitors were expressed as the amount of peptide III required to give an equivalent inhibition of precipitation.
# second degree burns [2] = assay: Wound healing of second degree burns, planimetry (Example VII); type: in vivo, Yorkshire piglet; conditions: once a day, after 7 days
# Protocol: Another experiment was performed to measure the effect of the analog of human TGF described above on the healing of second degree burns. The experimental conditions were similar to those described above. However, the following changes were made in the procedures. One Yorkshire piglet was anesthetized with Ketamine and each of 12 burns was made using the template for 11 seconds per burn. After each blister was removed, the wounds were treated once a day with one of the following:
# After 7 days, the eschar was removed.
# [3] = system: TGFα-induced DNA synthesis in quiescent HFF; assay: Cell proliferation assay, inhibition of TGFα-induced mitogenesis; type: cell-based, human; conditions: 3H-methylthymidine incorporation in quiescent HFF induced by 1 nM TGFα
# Protocol: (§1) HFF cells were grown to confluence in 48-well cluster dishes in DMEM-10% FCS and brought to quiescence by starvation for 2 days in DMEM-0.5% FCS. Mitogens and peptides were incubated with cells at 37° C. for 18 hours prior to a 4 hour pulse with 1 μCi [^3 H]methyl-thymidine (NEN) and trichloroacetic acid precipitable radioactivity was determined.
# [4] = molecular target: T1, EGF receptors on A-431 human epidermoid carcinoma cells (Homo sapiens, UniProt P00533); assay: Radioreceptor assay, 125I-EGF binding to cells (Example XII)
# T1 construct: A-431 human epidermoid carcinoma cells or human foreskin fibroblasts (HFF); endogenous in cells; host or cells: A-431 human epidermoid carcinoma cells
# Protocol: (§2) A-431 human epidermoid carcinoma cells or human foreskin fibroblasts (HFF), established from primary cultures, were grown to confluence in 24-well cluster dishes (Costar) in Dulbecco's […] (DMEM, Gibco) containing 10% fetal calf serum (FCS, Hyclone). EGF was radio-iodinated as above to between 4×10^4 and 8×10^4 cpm/ng protein. Cells were incubated at 4° C. for 60 minutes with 1 nM [^125 I]EGF in the presence of inhibitor peptides in DMEM ([…]; 20 mM Hepes) containing 0.1% BSA. Cells were washed 3× with cold buffer, lysed with 0.1 N NaOH, and cell-associated radioactivity was measured (γ-counter). Nonspecific binding assessed in the presence of a 100× excess of cold EGF was less than 5% and 10% of the specific binding for A-431 and HFF cells, respectively.
# [5] = molecular target: T2, EGF receptors on human foreskin fibroblasts (HFF) (Homo sapiens, UniProt P00533); assay: as above
# T2 construct: human foreskin fibroblasts (HFF), established from primary cultures; endogenous in cells; host or cells: human foreskin fibroblasts (HFF), primary-culture derived
# Protocol: as §2
# [6] = system: EGF-induced DNA synthesis in quiescent HFF; assay: Cell proliferation assay, inhibition of EGF-induced mitogenesis; type: cell-based, human; conditions: 3H-methylthymidine incorporation in quiescent HFF induced by 1 nM EGF
# Protocol: as §1
# anti-KLH-peptide 1 IgG = assay: Solid phase RIA, 125I anti-KLH-peptide 1 IgG on BSA-peptide 1; type: binding, rabbit
# Protocol: TGF peptide 1 was coupled to keyhole limpet hemocyanin (KLH) or bovine serum albumin (BSA) by thiol/maleimide linkage (King et al. (1979) J. Immunol. Methods 28, pp. 201-206). Carrier-peptide complexes were purified by gel filtration. An average of 60 moles peptide/mole KLH and 20 moles peptide/mole BSA was achieved. Rabbits were immunized with the KLH-peptide 1 conjugate by multiple subcutaneous (s.c.) and intramuscular (i.m.) injections of 2 mg protein in complete Freund's adjuvant. Rabbits were boosted s.c. every two weeks with the immunogen in incomplete Freund's adjuvant. The IgG fraction of the antiserum after 5 boosts was used for immunoassays and radiolabeled using Na^125 I (NEN) and Enzymobeads (Bio-Rad) to 4×10^5 cpm/μg protein. Polyvinyl chloride 96-well plates (Costar) were coated with 200 μg/mL BSA-peptide 1 conjugate and countercoated with 10% normal rabbit serum in phosphate-buffered saline. Plates were incubated for 4 hours at 37° C. with [^125 I]anti-KLH-peptide 1 IgG (50,000 cpm/well) in the presence or absence of inhibitors, washed and individual wells were counted.
# normal rat kidney cells = type: cell-based; conditions: on a ng equivalent basis
# fetal rat long bones = assay: Bone resorption in vitro, 45Ca release; type: cell-based
# Protocol: Synthetic rat TGF was prepared as described above in Example V. Purity of the protein was confirmed by sodium dodecyl sulfate-polyacrylamide gel electrophoresis, amino acid analysis, and reverse phase high-performance liquid chromatography. The biological activity of TGF preparations and synthetic TGF was monitored by means of an EGF radioreceptor assay. (Todaro et al. (1976) Nature 264, 26.) Bone resorption was assessed by measuring the release of ^45 Ca from previously labeled fetal rat long bones. Pregnant rats at the 18th day of gestation were injected with 200 μCi of ^45 Ca. (Raisz (1975) J. Clin. Invest. 44, 103.) The mothers were killed on the 19th day of gestation, and the fetuses were removed. The mineralized shafts of the radii and ulnae were dissected free of surrounding tissue and cartilage and placed in organ culture. The bones were incubated in BGJb medium (Irvine Scientific) for 24 hours at 37° C. in a humidified atmosphere of 5 percent of CO2 and 95 percent air to allow for the exchange of loosely complexed ^45 Ca. The bones were then cultured for 48 to 120 hours in BGJb medium supplemented with 5 percent fetal calf serum (KC Biologicals) containing control or test substances. […] Statistical significance was determined with Student's t test for unpaired data.
# second degree burns [7] = assay: Wound healing test on second degree burns (Example VI); type: in vivo, piglets; conditions: Pig 3, right side, 9 days post-burn
# antibody to TGF peptide = type: binding; conditions: 125I-labeled TGF peptide
# [8] = A-431 cells, read-out: IC50, inhibition of 125I-EGF binding
# [9] = 1 nM 125I-EGF, read-out: Binding IC50 (M) HFF
compound,measurement,setting,value
VVSHFNKCPDSHT [Peptide I],"inhibition of precipitation of 125I-peptide III, in words",[1],ineffective as a competitor
same,Relative Inhibitory Activity,[1],> 1500
hEGF: Human EGF,PERCENTAGE OF WOUND HEALED Burn A,second degree burns [2]; 0.1 μg/ml in Silvadene,17 percentage
same,PERCENTAGE OF WOUND HEALED Burn B,second degree burns [2]; 0.1 μg/ml in Silvadene,14 percentage
same,PERCENTAGE OF WOUND HEALED Burn A,second degree burns [2]; 1 μg/ml in Silvadene,14 percentage
same,PERCENTAGE OF WOUND HEALED Burn B,second degree burns [2]; 1 μg/ml in Silvadene,17 percentage
Ac-Cys-His-Ser-Gly-Tyr-Val-Gly-Ala-Arg-Cys-OMe (Ac-CHSGYVGARC-OMe; disulfide 1-10 (inferred)) [Peptide 3],IC50,[3],500 nM
same,IC50,"[4]; 1 nM 125I-EGF, read-out: Binding IC50 (M) A-431",4e-07 M
same,binding potency as % of EGF or TGF-α,[4]; A-431 cells,~0.2%
same,IC50,[4]; [8],4e-07 M
same,IC50,[5]; [9],3e-07 M
same,IC50,[6],600 nM
CC(=O)N[C@H]1CSSC[C@@H](C(N)=O)NC(=O)[C@H](CCCNC(=N)N)NC(=O)[C@H](C(C)C)NC(=O)CNC(=O)[C@H](C(C)C)NC(=O)[C@H](Cc2ccc(O)cc2)NC(=O)CNC(=O)[C@H](CO)NC(=O)[C@H](Cc2c[nH]cn2)NC1=O [Peptide 2] (Ac-CHSGYVGVRC-NH2; disulfide 1-10),IC50,[3],3000 nM
same,binding potency as % of EGF or TGF-α,[4]; A-431 cells,approximately 0.02%
same,IC50,[4]; [8],4e-06 M
same,IC50,[5]; [9],2e-06 M
same,IC50,[6],5000 nM
CHSGYVGVRCEHADLLA (cysteine pairing not given here) [Peptide III],Relative Inhibitory Activity,[1],1
CC(C)[C@@H]1NC(=O)CNC(=O)[C@H](C(C)C)NC(=O)[C@H](Cc2ccc(O)cc2)NC(=O)CNC(=O)[C@H](CO)NC(=O)[C@H](Cc2c[nH]cn2)NC(=O)[C@@H](N)CSSC[C@@H](C(=O)O)NC(=O)[C@H](CCCNC(=N)N)NC1=O [Peptide 1] (H-CHSGYVGVRC-OH; disulfide 1-10),IC50,[3],> 10000 nM
same,IC50,[4],8e-05 M
same,"inhibition of 125I-EGF binding to A-431 cells, in words",[4]; at >10^-6 M,partially inhibited
same,IC50,[5],6e-05 M
same,IC50,[6],> 10000 nM
same,inhibition of antibody reaction with BSA-TGF peptide,anti-KLH-peptide 1 IgG,inhibited in a concentration-dependent fashion
CHSGYVGVRC (cysteine pairing not given here) [Peptide II],highest concentration without inhibition of precipitation of 125I-peptide III,[1],> 1.1 µM
same,Relative Inhibitory Activity,[1],> 1500
"synthetic rTGF: rat TGF of the formula of Example II made by stepwise solid-phase synthesis, purified to homogeneity","inhibition of precipitation of 125I-peptide III, in words",[1],equally effective
same,colonies in soft agar,normal rat kidney cells,154 colonies
same,bone resorption during the first 48 hours of bone culture,fetal rat long bones,no significant bone resorption
same,effective concentrations for bone resorption compared with EGF,fetal rat long bones,about one order of magnitude less than EGF
same,time required to stimulate bone resorption,fetal rat long bones,at least 72 hours
same,concentrations that stimulated bone resorption,fetal rat long bones; three separate experiments (Example XIII),greater than 2 ng EGF equivalents/ml
same,concentrations that stimulated bone resorption,fetal rat long bones; three separate experiments (Example XIV),greater than 2 ng of EGF equivalents per milliliter
same,inhibition of antibody reaction with BSA-TGF peptide,anti-KLH-peptide 1 IgG,slightly less
same,approximate percentage of burn epithelialized,second degree burns [7]; 0.1 μg/ml in Silvadene,90%
same,approximate percentage of burn epithelialized,second degree burns [7]; 0.5 μg/ml in Silvadene,65%
same,approximate percentage of burn epithelialized,second degree burns [7]; 10 μg/ml in Silvadene,90%
same,antigen concentration for 50% displacement of antigen from antibody,antibody to TGF peptide,0.2-0.3 ng equivalents of EGF
